Values quoted from earlier work in patent publication US8442776B2, “Structure of compstatin-C3 complex and use for rational drug design” (The Trustees of the University of Pennsylvania, priority 2007, dated 2013).

Experiments:
[1] = tested on: complement system (C3 activation); settings: read-out: inhibitory activity IC50

- binding to primate C3 (primate C3): binds only to primate C3
- IC50 [1]: 12 µM
Compound: CC[C@H](C)[C@H](N)C(=O)N[C@H]1CSSC[C@@H](C(=O)N[C@H](C(N)=O)[C@@H](C)O)NC(=O)[C@H](CCCN=C(N)N)NC(=O)[C@H](Cc2cnc[nH]2)NC(=O)[C@H](Cc2cnc[nH]2)NC(=O)CNC(=O)[C@H](Cc2c[nH]c3ccccc23)NC(=O)[C@H](CC(=O)O)NC(=O)[C@H](CCC(N)=O)NC(=O)[C@H](C(C)C)NC(=O)[C@H](C(C)C)NC1=O [Compstatin]
